Biological target: biotinylated human IL-17A / AF647-labeled human IL-17RA (Homo sapiens, UniProt Q16552)
Experiment: Human IL-17A×IL-17RA TR-FRET assay
Assay type: binding
Conditions: IL17AA FRET/ IL17Rawt IC50, TR-FRET, 5 nM IL-17A, 30 nM IL-17RA
Protocol: Human IL-17A×IL-17RA TR-FRET Assay
Each compound concentration is tested in duplicate.
The final total assay volume is 10 μL.
Each plate contains test compounds in columns 1-22 and controls in columns 23 and 24. The neutral control (NC) contains all the assay components, but DMSO instead of test compound. […] The fluorescence values for emission at 615 nm and 665 nm are loaded to the evaluation software Helios.
From the activity data at each compound concentration, the IC50 values are obtained using the 4-parameter logistic function (“Hill-slope model”) of Helios.

Chain of biotinylated human IL-17A / AF647-labeled human IL-17RA (Q16552 24-155): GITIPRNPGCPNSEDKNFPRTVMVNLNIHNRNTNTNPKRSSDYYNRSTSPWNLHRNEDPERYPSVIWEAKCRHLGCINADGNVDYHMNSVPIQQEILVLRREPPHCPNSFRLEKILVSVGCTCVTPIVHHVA

SMILES	IC50
CCn1nccc1C(=O)NC(C(=O)Nc1ccc(-c2c(C(F)(F)F)cc[n+]([O-])c2C)cc1)C1CC2CC2C1 (single isomer, unassigned) [Example 154]	6.3 µM
Cc1c(-c2ccc(NC(=O)[C@@H](NC(=O)c3ccnn3C)C3CCC(F)(F)CC3)cc2)cc(Cl)c[n+]1[O-] [Example 177, (S)-5-chloro-3-(4-(2-(4,4-difluorocyclohexyl)-2-(1-methyl-1H-pyrazole-5-carboxamido)acetamido)phenyl)-2-methylpyridine 1-oxide]	2.11 µM

Same assay, conditions: IL17AA FRET/ IL17Rawt IC50, TR-FRET, biotinylated human IL-17A 5 nM, AF647-labeled human IL-17RA 30 nM

SMILES	IC50
Cc1c(-c2ccc(NC(=O)C(NC(=O)c3ccnn3C)C3CC4C(C3)C4(F)F)cc2)c(Cl)cc[n+]1[O-] (single isomer, unassigned) [Example 54b]	10.9 µM

Same assay, conditions: TR-FRET, 5 nM IL-17A, 30 nM IL-17RA; read-out: IL17AA FRET/ IL17Rawt IC50

SMILES	IC50
Cc1c(-c2ccc(NC(=O)C(NC(=O)c3ccc4n3CCNC4)[C@@H]3C[C@@H]4[C@H](C3)C4(F)F)cc2)c(Cl)cc[n+]1[O-] (stereo partly drawn) [Example 211, 4-chloro-3-(4-(2-((1R,3s,5S)-6,6-difluorobicyclo[3.1.0]hexan-3-yl)-2-(1,2,3,4-tetrahydropyrrolo[1,2-a]pyrazine-6-carboxamido)acetamido)phenyl)-2-methylpyridine 1-oxide]	0.499 µM
Cc1c(-c2ccc(NC(=O)[C@@H](NC(=O)c3ccc4n3CCN(C)C4)[C@H]3CCCC(F)(F)C3)cc2)c(C(F)(F)F)cc[n+]1[O-] [Example 166, 3-(4-((S)-2-((S)-3,3-difluorocyclohexyl)-2-(2-methyl-1,2,3,4-tetrahydropyrrolo[1,2-a]pyrazine-6-carboxamido)acetamido)phenyl)-2-methyl-4-(trifluoromethyl)pyridine 1-oxide]	0.358 µM
CC(=O)N1CCn2c(ccc2C(=O)N[C@H](C(=O)Nc2ccc(-c3c(C(F)(F)F)cc[n+]([O-])c3C)cc2)C2CCC(F)(F)CC2)C1 [Example 210, (S)-3-(4-(2-(2-acetyl-1,2,3,4-tetrahydropyrrolo[1,2-a]pyrazine-6-carboxamido)-2-(4,4-difluorocyclohexyl)acetamido)phenyl)-2-methyl-4-(trifluoromethyl)pyridine 1-oxide]	0.478 µM
COCc1nocc1C(=O)N[C@H](C(=O)Nc1ccc(-c2cc(Cl)c[n+]([O-])c2C)cc1)C1CCC(F)(F)CC1 [Example 176, (S)-5-chloro-3-(4-(2-(4,4-difluorocyclohexyl)-2-(3-(methoxymethyl)isoxazole-4-carboxamido)acetamido)phenyl)-2-methylpyridine 1-oxide]	1.61 µM
Cc1cc[n+]([O-])c(C)c1-c1ccc(NC(=O)[C@@H](NC(=O)c2ccc3n2CCNC3)C(C)c2ccccc2Cl)cc1 (stereo partly drawn) [Example 216, 3-(4-((2S)-3-(2-chlorophenyl)-2-(1,2,3,4-tetrahydropyrrolo[1,2-a]pyrazine-6-carboxamido)butanamido)phenyl)-2,4-dimethylpyridine 1-oxide]	0.796 µM
Cc1cc[n+]([O-])c(C)c1-c1ccc(NC(=O)C(NC(=O)c2ccc3n2CCN(C)C3)C(C)c2ccccc2Cl)cc1 (centres unmarked) [Example 212, 3-(4-(3-(2-chlorophenyl)-2-(2-methyl-1,2,3,4-tetrahydropyrrolo[1,2-a]pyrazine-6-carboxamido)butanamido)phenyl)-2,4-dimethylpyridine 1-oxide]	0.502 µM
Cc1cc[n+]([O-])c(C)c1-c1ccc(NC(=O)[C@@H](NC(=O)c2ccc3n2CCN(C)C3)[C@H]2CCCC(F)(F)C2)cc1 [Example 152, 3-(4-((S)-2-((S)-3,3-difluorocyclohexyl)-2-(2-methyl-1,2,3,4-tetrahydropyrrolo[1,2-a]pyrazine-6-carboxamido)acetamido)phenyl)-2,4-dimethylpyridine 1-oxide]	0.391 µM
Cc1cc[n+]([O-])c(C)c1-c1ccc(NC(=O)C(NC(=O)c2ccnn2C)C2CC(F)CC(F)C2)cc1 (centres unmarked) [Example 222, 3-(4-(2-(3,5-difluorocyclohexyl)-2-(1-methyl-1H-pyrazole-5-carboxamido)acetamido)phenyl)-2,4-dimethylpyridine 1-oxide]	7.29 µM
Cc1cc[n+]([O-])c(C)c1-c1ccc(NC(=O)[C@@H](NC(=O)c2ccc3n2CCN(C)C3)C2CCC(F)CC2)cc1 (stereo partly drawn) [Example 214, 3-(4-((2S)-2-(4-fluorocyclohexyl)-2-(2-methyl-1,2,3,4-tetrahydropyrrolo[1,2-a]pyrazine-6-carboxamido)acetamido)phenyl)-2,4-dimethylpyridine 1-oxide]	0.69 µM
Cc1cc[n+]([O-])c(C)c1-c1ccc(NC(=O)C(NC(=O)c2ccc3n2CCNC3)C2CCC(C)CC2)cc1 [Example 220, 2,4-dimethyl-3-(4-((S)-2-((1r,4S)-4-methylcyclohexyl)-2-(1,2,3,4-tetrahydropyrrolo[1,2-a]pyrazine-6-carboxamido)acetamido)phenyl)pyridine 1-oxide]	2.31 µM
Cc1cc[n+]([O-])c(C)c1-c1ccc(NC(=O)[C@@H](NC(=O)c2conc2CO)C2CCC(F)(F)CC2)cc1 [Example 155, (S)-3-(4-(2-(4,4-difluorocyclohexyl)-2-(3-(hydroxymethyl)isoxazole-4-carboxamido)acetamido)phenyl)-2,4-dimethylpyridine 1-oxide]	1.15 µM
Cc1c(-c2ccc(NC(=O)C(NC(=O)c3ccc4n3CCN(C)C4)[C@@H]3C[C@@H]4[C@H](C3)C4(F)F)cc2)c(Cl)cc[n+]1[O-] (stereo partly drawn) [Example 165, 4-chloro-3-(4-(2-((1R,3s,5S)-6,6-difluorobicyclo[3.1.0]hexan-3-yl)-2-(2-methyl-1,2,3,4-tetrahydropyrrolo[1,2-a]pyrazine-6-carboxamido)acetamido)phenyl)-2-methylpyridine 1-oxide]	0.301 µM

Same assay, conditions: TR-FRET, 5 nM IL-17A, 30 nM IL-17RA; reference examples (pyridines); read-out: IL17AA FRET/ IL17RAwt IC50

SMILES	IC50
CCc1nocc1C(=O)N[C@H](C(=O)Nc1ccc(-c2c(Cl)ccnc2C)cc1)[C@H]1CCCC(F)(F)C1 [compound 140, N-((S)-2-((4-(4-chloro-2-methylpyridin-3-yl)phenyl)amino)-1-((S)-3,3-difluorocyclohexyl)-2-oxoethyl)-3-ethylisoxazole-4-carboxamide, reference compound]	1.22 µM
CCn1nccc1C(=O)N[C@H](C(=O)Nc1ccc(-c2c(C)ccnc2C)cc1)[C@H]1CC[C@H](C(F)(F)F)CC1 [compound 141, N-((S)-2-((4-(2,4-dimethylpyridin-3-yl)phenyl)amino)-2-oxo-1-((1r,4S)-4-(trifluoromethyl)cyclohexyl)ethyl)-1-ethyl-1H-pyrazole-5-carboxamide, reference compound]	2.63 µM
Cc1nocc1C(=O)N[C@H](C(=O)Nc1ccc(-c2c(C(F)(F)F)ccnc2C)cc1)[C@H]1CCCC(F)(F)C1 [compound 143, N-((S)-1-((S)-3,3-difluorocyclohexyl)-2-((4-(2-methyl-4-(trifluoromethyl)pyridin-3-yl)phenyl)amino)-2-oxoethyl)-3-methylisoxazole-4-carboxamide, reference compound]	0.851 µM

Same assay, conditions: TR-FRET, biotinylated human IL-17A 5 nM, AF647-labeled human IL-17RA 30 nM; read-out: IL17AA FRET/ IL17Rawt IC50

SMILES	IC50
Cc1nc(C(F)(F)F)c(C(=O)N[C@H](C(=O)Nc2ccc(-c3c(C(F)(F)F)cc[n+]([O-])c3C)cc2)C2CCCC2)s1 [Example 73, (S)-3-(4-(2-cyclopentyl-2-(2-methyl-4-(trifluoromethyl)thiazole-5-carboxamido)acetamido)phenyl)-2-methyl-4-(trifluoromethyl)pyridine 1-oxide]	1.41 µM
Cc1cc[n+]([O-])c(C)c1-c1ccc(NC(=O)[C@@H](NC(=O)c2ccc3n2CCN(C2CC2)C3)C2CCCCC2)cc1 [Example 131, (S)-3-(4-(2-cyclohexyl-2-(2-cyclopropyl-1,2,3,4-tetrahydropyrrolo[1,2-a]pyrazine-6-carboxamido)acetamido)phenyl)-2,4-dimethylpyridine 1-oxide]	0.102 µM
Cc1c[n+]([O-])cc(C)c1-c1ccc(NC(=O)[C@@H](NC(=O)c2ccnn2C2CC2)C2CCCCC2)cc1 [Example 98, (S)-4-(4-(2-cyclohexyl-2-(1-cyclopropyl-1H-pyrazole-5-carboxamido)acetamido)phenyl)-3,5-dimethylpyridine 1-oxide]	1.4 µM
Cc1cc[n+]([O-])c(C)c1-c1ccc(NC(=O)C(NC(=O)c2ccnn2C)C2(C)CCCCC2)cc1 (centres unmarked) [Example 43, 2,4-dimethyl-3-(4-(2-(1-methyl-1H-pyrazole-5-carboxamido)-2-(1-methylcyclohexyl)acetamido)phenyl)pyridine 1-oxide]	78.9 µM
CCn1nccc1C(=O)N[C@@H](C(=O)Nc1ccc(-c2c(Cl)cc[n+]([O-])c2C)cc1)C1CCC(F)(F)CC1 (single isomer, unassigned) [Example 13b]	30.4 µM
Cc1cc[n+]([O-])c(C)c1-c1ccc(NC(=O)[C@@H](NC(=O)c2conc2CN(C)C)C2CCCCC2)cc1 [Example 80, (S)-3-(4-(2-cyclohexyl-2-(3-((dimethylamino)methyl)isoxazole-4-carboxamido)acetamido)phenyl)-2,4-dimethylpyridine 1-oxide]	4.45 µM
Cc1cc[n+]([O-])c(F)c1-c1ccc(NC(=O)[C@@H](NC(=O)c2ccnn2C)C2CCCCC2)cc1 [Example 114, (S)-3-(4-(2-cyclohexyl-2-(1-methyl-1H-pyrazole-5-carboxamido)acetamido)phenyl)-2-fluoro-4-methylpyridine 1-oxide]	2.79 µM
Cc1c(-c2ccc(NC(=O)[C@@H](NC(=O)c3ccnn3C)C3CCCCC3)c(Cl)c2)c(Cl)cc[n+]1[O-] [Example 85, (S)-4-chloro-3-(3-chloro-4-(2-cyclohexyl-2-(1-methyl-1H-pyrazole-5-carboxamido)acetamido)phenyl)-2-methylpyridine 1-oxide]	20.9 µM

From patent US12600728B2, “Interleukin-17 inhibitors” (priority 2020, dated 2026)
